Reference: publication PMC4979471 (Cell Death Discovery, 2015)
Like-named read-outs stand apart in the source and are kept apart here.

Legend:
Experiment in all cases: Kinase selectivity, P33-radiolabeled assay
Format in all cases: biochemical
Details in all cases: 10 μM ATP
[1] = molecular target: T1, CAMK1b (Homo sapiens, UniProt Q6P2M8)
T1 construct: purchased Reaction Biology Corp
Summary of the method: (§1)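 Reactions contained 10 μM ATP and 10 μM test compound, each run in duplicate. Kinase activity is expressed as a percentage of DMSO-treated controls.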

[2] = molecular target: T2, WNK3 (Homo sapiens, UniProt Q9BYP7)
T2 construct: purchased Reaction Biology Corp
Summary of the method: as §1

[3] = molecular target: T3, MYLK3 (Homo sapiens, UniProt Q32MK0)
T3 construct: purchased Reaction Biology Corp
T3 sequence (Q32MK0 1-819): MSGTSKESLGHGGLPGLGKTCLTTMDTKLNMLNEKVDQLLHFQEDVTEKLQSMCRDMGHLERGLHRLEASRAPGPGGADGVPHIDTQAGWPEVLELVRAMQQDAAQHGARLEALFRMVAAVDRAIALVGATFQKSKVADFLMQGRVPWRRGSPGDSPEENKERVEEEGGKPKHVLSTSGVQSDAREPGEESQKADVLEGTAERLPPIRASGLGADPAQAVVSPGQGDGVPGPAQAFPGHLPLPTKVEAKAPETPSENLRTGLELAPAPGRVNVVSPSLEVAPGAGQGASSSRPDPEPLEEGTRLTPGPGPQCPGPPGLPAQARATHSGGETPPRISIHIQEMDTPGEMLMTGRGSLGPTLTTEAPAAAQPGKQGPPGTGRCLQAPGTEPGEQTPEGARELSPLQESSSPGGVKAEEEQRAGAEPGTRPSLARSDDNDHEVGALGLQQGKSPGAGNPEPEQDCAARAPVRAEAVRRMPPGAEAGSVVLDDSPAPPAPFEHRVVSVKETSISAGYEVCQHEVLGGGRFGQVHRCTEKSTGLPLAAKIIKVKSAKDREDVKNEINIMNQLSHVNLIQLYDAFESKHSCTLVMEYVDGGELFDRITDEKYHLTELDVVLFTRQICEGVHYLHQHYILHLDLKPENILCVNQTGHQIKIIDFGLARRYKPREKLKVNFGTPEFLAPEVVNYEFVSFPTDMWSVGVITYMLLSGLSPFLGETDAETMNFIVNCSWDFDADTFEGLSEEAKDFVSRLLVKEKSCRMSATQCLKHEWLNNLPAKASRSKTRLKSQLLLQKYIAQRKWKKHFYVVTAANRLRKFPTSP
Summary of the method: as §1

[4] = molecular target: T4, MST1/STK4 (Homo sapiens, UniProt Q13043)
T4 construct: purchased Reaction Biology Corp
T4 sequence (Q13043 1-487): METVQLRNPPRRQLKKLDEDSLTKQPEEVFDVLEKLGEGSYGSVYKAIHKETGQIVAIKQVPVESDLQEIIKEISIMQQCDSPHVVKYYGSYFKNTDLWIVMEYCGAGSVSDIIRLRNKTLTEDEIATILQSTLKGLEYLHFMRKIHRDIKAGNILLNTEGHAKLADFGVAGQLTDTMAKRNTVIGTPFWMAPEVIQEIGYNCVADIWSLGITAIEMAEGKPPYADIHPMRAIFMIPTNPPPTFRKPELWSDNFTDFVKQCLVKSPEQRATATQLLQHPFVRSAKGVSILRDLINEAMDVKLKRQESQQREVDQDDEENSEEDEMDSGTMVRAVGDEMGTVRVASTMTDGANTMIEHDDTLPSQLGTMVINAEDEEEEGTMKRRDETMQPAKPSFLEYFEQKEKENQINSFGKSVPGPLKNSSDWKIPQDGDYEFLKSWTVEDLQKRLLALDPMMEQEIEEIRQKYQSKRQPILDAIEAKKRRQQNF
Summary of the method: as §1

[5] = molecular target: T5, SGK1 (Homo sapiens, UniProt O00141)
T5 construct: purchased Reaction Biology Corp
T5 sequence (O00141 1-431): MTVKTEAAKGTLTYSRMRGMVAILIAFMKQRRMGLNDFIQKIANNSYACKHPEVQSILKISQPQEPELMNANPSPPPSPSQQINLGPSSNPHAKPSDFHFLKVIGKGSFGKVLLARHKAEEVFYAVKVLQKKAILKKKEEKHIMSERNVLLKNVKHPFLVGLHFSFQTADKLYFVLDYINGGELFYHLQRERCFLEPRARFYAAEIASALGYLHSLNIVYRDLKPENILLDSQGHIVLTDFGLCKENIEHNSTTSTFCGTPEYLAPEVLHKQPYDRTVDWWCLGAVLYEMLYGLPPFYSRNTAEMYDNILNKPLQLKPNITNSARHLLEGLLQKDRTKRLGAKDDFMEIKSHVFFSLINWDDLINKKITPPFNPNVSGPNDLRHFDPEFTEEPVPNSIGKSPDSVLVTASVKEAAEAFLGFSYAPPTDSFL
Summary of the method: as §1

[6] = molecular target: T6, TTBK2 (Homo sapiens, UniProt Q6IQ55)
T6 construct: purchased Reaction Biology Corp
Summary of the method: as §1

[7] = molecular target: T7, EPHA5 (Homo sapiens, UniProt P54756)
T7 construct: purchased Reaction Biology Corp
Summary of the method: as §1

[8] = molecular target: T8, JNK1 (Homo sapiens, UniProt P45983)
T8 construct: purchased Reaction Biology Corp
Summary of the method: as §1

[9] = read-out: % Enzyme Activity (relative to DMSO controls) AVG
[10] = read-out: % Enzyme Activity (relative to DMSO controls) Data 1
[11] = read-out: % Enzyme Activity (relative to DMSO controls) Data 2

T7 sequence (P54756 25-1037): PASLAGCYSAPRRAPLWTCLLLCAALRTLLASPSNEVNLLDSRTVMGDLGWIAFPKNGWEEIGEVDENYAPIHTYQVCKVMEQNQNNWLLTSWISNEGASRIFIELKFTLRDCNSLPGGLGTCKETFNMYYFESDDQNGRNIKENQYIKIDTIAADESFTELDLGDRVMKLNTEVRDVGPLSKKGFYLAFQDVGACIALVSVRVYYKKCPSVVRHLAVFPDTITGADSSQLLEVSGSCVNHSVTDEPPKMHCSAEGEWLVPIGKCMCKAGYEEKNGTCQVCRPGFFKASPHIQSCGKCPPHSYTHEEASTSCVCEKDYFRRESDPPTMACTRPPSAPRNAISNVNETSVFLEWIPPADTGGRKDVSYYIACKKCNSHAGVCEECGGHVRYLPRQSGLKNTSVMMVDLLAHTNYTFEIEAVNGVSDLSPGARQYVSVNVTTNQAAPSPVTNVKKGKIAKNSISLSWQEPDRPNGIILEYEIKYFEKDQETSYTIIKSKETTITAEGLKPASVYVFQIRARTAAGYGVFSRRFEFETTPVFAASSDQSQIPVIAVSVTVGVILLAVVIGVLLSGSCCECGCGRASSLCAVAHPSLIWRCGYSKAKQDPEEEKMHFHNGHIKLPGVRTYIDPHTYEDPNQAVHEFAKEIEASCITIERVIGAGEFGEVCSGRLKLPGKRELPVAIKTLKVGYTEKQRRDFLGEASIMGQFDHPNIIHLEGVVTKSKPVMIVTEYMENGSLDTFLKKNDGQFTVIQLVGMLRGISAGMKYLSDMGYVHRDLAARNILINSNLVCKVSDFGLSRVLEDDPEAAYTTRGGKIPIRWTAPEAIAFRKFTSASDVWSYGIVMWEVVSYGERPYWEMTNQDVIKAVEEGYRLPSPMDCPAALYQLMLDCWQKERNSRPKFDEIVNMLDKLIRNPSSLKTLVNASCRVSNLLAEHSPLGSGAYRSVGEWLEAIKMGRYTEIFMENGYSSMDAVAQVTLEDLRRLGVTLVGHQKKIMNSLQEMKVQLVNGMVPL
T6 sequence (Q6IQ55 whole entry): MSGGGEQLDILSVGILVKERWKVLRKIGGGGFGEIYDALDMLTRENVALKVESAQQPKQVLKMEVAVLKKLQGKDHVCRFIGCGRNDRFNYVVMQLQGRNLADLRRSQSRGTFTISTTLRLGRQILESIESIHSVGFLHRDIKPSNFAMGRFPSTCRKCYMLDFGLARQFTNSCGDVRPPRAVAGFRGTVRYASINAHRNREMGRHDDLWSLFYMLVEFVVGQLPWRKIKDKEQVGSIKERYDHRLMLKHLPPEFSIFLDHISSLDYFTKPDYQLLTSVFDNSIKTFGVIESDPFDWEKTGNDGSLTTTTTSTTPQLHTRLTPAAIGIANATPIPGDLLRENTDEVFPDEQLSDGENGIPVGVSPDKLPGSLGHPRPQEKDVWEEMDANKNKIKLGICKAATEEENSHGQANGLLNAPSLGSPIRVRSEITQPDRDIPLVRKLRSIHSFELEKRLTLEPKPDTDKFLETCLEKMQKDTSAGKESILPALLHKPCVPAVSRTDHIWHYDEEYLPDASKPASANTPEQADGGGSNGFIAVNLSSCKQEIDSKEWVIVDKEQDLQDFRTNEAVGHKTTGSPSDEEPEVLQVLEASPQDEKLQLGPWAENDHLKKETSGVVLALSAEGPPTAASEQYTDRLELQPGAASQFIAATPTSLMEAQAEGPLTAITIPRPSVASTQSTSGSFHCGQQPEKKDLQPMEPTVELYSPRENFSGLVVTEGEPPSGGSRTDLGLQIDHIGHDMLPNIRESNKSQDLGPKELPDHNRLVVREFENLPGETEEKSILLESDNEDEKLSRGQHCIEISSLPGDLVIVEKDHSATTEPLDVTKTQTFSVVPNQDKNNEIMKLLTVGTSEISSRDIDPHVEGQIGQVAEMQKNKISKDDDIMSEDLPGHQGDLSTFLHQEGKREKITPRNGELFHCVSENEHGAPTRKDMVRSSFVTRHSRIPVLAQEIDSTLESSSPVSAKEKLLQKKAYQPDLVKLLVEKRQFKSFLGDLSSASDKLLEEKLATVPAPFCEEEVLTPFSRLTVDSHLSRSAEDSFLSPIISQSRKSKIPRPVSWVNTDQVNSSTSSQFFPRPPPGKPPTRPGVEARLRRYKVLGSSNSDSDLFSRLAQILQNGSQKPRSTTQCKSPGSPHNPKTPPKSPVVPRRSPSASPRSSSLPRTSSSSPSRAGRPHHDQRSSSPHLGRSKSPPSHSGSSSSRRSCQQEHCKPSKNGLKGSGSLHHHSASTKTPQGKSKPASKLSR
T2 sequence (Q9BYP7 whole entry): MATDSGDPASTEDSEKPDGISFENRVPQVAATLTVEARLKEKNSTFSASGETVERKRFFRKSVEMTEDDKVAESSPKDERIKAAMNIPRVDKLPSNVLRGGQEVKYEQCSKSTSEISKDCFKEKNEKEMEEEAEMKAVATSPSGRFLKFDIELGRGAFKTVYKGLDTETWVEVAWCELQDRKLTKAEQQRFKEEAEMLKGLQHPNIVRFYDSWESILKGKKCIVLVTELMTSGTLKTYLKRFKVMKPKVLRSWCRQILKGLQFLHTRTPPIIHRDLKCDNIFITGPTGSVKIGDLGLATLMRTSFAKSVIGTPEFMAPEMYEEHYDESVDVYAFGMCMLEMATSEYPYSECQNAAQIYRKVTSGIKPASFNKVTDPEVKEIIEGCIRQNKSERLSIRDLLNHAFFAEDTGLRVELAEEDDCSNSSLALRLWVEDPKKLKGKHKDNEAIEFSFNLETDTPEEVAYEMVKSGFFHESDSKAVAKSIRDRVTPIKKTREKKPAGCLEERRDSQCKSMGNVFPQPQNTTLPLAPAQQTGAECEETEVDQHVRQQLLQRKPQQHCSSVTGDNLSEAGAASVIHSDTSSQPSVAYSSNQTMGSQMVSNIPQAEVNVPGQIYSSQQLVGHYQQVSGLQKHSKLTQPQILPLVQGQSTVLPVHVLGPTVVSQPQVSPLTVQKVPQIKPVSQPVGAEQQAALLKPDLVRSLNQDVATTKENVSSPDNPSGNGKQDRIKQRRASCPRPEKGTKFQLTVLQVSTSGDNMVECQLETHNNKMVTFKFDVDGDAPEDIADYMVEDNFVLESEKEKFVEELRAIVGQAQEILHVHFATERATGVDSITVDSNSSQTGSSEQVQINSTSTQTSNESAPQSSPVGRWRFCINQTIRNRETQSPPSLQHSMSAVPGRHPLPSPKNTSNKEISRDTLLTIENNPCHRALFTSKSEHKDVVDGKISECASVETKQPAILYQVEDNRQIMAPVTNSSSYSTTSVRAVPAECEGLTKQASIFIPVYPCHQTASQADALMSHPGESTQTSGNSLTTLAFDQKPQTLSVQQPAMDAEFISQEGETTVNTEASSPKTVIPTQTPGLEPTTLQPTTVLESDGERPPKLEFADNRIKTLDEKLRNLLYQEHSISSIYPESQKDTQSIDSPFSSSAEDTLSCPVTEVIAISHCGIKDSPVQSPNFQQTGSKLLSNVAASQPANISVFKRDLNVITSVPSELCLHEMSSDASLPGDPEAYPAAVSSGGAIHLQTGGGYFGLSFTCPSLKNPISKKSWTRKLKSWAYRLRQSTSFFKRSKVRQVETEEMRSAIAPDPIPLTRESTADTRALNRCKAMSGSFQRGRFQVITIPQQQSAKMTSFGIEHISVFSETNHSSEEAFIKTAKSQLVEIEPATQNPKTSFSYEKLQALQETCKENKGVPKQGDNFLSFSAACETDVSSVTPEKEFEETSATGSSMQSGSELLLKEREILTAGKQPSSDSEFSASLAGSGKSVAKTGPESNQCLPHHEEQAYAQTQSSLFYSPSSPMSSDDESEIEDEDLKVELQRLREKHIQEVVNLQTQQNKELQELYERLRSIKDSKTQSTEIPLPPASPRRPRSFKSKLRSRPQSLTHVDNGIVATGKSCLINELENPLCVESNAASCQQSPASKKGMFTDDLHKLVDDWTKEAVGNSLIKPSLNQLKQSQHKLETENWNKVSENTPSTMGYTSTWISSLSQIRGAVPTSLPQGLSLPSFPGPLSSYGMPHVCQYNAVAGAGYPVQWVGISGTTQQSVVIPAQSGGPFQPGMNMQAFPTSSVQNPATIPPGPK
T1 sequence (Q6P2M8 whole entry): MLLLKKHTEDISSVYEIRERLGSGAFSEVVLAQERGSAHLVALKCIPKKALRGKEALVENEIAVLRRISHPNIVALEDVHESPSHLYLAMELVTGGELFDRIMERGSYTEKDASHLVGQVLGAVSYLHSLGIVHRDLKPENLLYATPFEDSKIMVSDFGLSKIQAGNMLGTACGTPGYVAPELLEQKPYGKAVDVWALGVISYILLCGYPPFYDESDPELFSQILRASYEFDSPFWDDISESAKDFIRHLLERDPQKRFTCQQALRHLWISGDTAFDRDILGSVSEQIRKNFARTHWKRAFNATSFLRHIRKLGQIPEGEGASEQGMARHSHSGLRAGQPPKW
T8 sequence (P45983 whole entry): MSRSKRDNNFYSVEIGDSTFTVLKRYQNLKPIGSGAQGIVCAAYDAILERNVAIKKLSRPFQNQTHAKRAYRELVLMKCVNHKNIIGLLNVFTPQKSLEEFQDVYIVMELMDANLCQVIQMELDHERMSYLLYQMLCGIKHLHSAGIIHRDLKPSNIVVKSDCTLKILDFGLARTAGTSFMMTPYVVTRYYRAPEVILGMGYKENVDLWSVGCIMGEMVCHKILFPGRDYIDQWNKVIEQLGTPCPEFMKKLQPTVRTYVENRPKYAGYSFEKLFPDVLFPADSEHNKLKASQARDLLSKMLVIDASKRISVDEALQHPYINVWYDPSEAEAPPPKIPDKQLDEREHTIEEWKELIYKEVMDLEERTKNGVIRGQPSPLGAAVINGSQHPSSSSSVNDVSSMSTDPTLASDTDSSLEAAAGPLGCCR

CC(C)(C)C(=O)N1N=CC[C@H]1c1ccccc1 [GSK′963]
remaining activity at 10 µM [1, 9]: 96.4% | remaining activity at 10 µM [1, 10]: 97.1% | remaining activity at 10 µM [1, 11]: 95.8% | remaining activity at 10 µM [2, 9]: 100% | remaining activity at 10 µM [2, 10]: 97.5% | remaining activity at 10 µM [2, 11]: 103% | remaining activity at 10 µM [3, 9]: 102% | remaining activity at 10 µM [3, 10]: 99.7% | remaining activity at 10 µM [3, 11]: 105% | remaining activity at 10 µM [4, 9]: 100% | remaining activity at 10 µM [4, 10]: 101% | remaining activity at 10 µM [4, 11]: 100% | remaining activity at 10 µM [5, 9]: 99.7% | remaining activity at 10 µM [5, 10]: 99% | remaining activity at 10 µM [5, 11]: 100% | remaining activity at 10 µM [6, 9]: 97.8% | remaining activity at 10 µM [6, 10]: 98.5% | remaining activity at 10 µM [6, 11]: 97.1% | remaining activity at 10 µM [7, 9]: 107% | remaining activity at 10 µM [7, 10]: 105% | remaining activity at 10 µM [7, 11]: 108% | remaining activity at 10 µM [8, 9]: 97.1% | remaining activity at 10 µM [8, 10]: 97.3% | remaining activity at 10 µM [8, 11]: 97%
